One experiment concerns HCT116 MTAP null cells. In words: HCT116 MTAP null cell proliferation / viability (CellTiter-Glo, 6 days). Type of experiment: cell-based. The following applies: HCT116-MTAP null, 144 h, HCT116 MTAP null cells, 6 days, CellTiter-Glo; read-out: HCT-116 MTAP null IC50. In outline:
(§1)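 Viability read by CellTiter-Glo after 6-day compound exposure of MTAP-null and wild-type HCT116 cells grown in RPMI 1640 with 10% FBS. Dosing used 1:3 steps from 1 or 10 μM (8-9 points) or 1:2 steps from 10 or 50 μM (22 points); IC50 taken where fitted curve crosses 50% of control.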

For a further experiment, the system named is HCT116 WT cells. In words: HCT116 WT cell proliferation / viability (CellTiter-Glo, 6 days). Type of experiment: cell-based. The following applies: Homo sapiens, HCT-116, 144 h, HCT116 WT cells, 6 days, CellTiter-Glo; read-out: HCT-116 WT IC50. In outline: as §1
In general terms: ATP-based viability assays read luminescence as a measure of living cells.

Structures are written as SMILES.

Consider `CC1OCc2c1c(N)nc1ccc(C(=O)N(CC3=CCCOC3)Cc3ccc(C(F)(F)F)cn3)cc21` (stereo not shown) [Example 915, 4-amino-N-((5,6-dihydro-2H-pyran-3-yl)methyl)-3-methyl-N-((5-(trifluoromethyl)pyridin-2-yl)methyl)-1,3-dihydrofuro[3,4-c]quinoline-8-carboxamide], for which the results for the IC50 in the experiment on HCT116 MTAP null cells and in the experiment on HCT116 WT cells were 29 nM and 4200 nM, respectively.
The matching figures for `CCN(C(=O)c1cc2c3c(c(N)nc2cc1Cl)COC3)C(C)c1ccc(Cl)nc1` (racemic) [Example 737, 4-amino-7-chloro-N-((1R)-1-(6-chloro-3-pyridinyl)ethyl)-N-ethyl-1,3-dihydrofuro[3,4-c]quinoline-8-carboxamide and 4-amino-7-chloro-N-((1S)-1-(6-chloro-3-pyridinyl)ethyl)-N-ethyl-1,3-dihydrofuro[3,4-c]quinoline-8-carboxamide]: 59 nM and 2380 nM.
Consider `CC(C)N(Cc1ccc(C(F)(F)F)cn1)C(=O)c1ccc2nc(N)c3c(c2c1)COC3(C)C` [Example 934, 4-amino-N-isopropyl-3,3-dimethyl-N-((5-(trifluoromethyl)pyridin-2-yl)methyl)-1,3-dihydrofuro[3,4-c]quinoline-8-carboxamide], for which the IC50 was 79 nM with HCT116 MTAP null cells and more than 1000 nM with HCT116 WT cells.
For `Nc1nc2ccc(C(=O)N(Cc3ccc(C(F)(F)F)nn3)C3COC3)cc2c2c1COC2` [Example 713, 4-amino-N-(3-oxetanyl)-N-((6-(trifluoromethyl)-3-pyridazinyl)methyl)-1,3-dihydrofuro[3,4-c]quinoline-8-carboxamide], the IC50 in the experiment with HCT116 MTAP null cells is 5110 nM; in the experiment on HCT116 WT cells, more than 50000 nM.
The matching figures for `N#CC[C@H](C1CC1)N(Cc1ccc(C#N)cn1)C(=O)c1ccc2nc(N)c3c(c2c1)COC3` (single isomer, unassigned) [Example 581]: 809 nM and 10200 nM.
On to `C[C@H](c1ccc(C(F)(F)F)cc1)N(C)C(=O)c1cc2c3c(c(N)nc2cc1F)COC3` (single isomer, unassigned) [Example 857], for which the IC50 in the experiment on HCT116 MTAP null cells turned out to be 26 nM; in the experiment with HCT116 WT cells it was 1090 nM.
Take `C[C@H](c1ncc(C(F)(F)F)cc1F)N(C)C(=O)c1cc2c(cc1F)nc(N)c1cnn(C)c12` (single isomer, unassigned) [Example 863]: the figures for the IC50 in the experiment on HCT116 MTAP null cells and in the experiment on HCT116 WT cells were 7 nM and 340 nM, respectively.
With `CCN(Cc1ccc(C(F)(F)F)nn1)C(=O)c1ccc2nc(N)c3cnn(C)c3c2c1` [Example 548, 4-amino-N-ethyl-1-methyl-N-((6-(trifluoromethyl)-3-pyridazinyl)methyl)-1H-pyrazolo[4,3-c]quinoline-8-carboxamide], the IC50 in the experiment on HCT116 MTAP null cells was determined as 78 nM; in the experiment with HCT116 WT cells it was 6870 nM.
Take `CC(C)N(Cc1ccc(C(F)(F)F)cn1)C(=O)c1ccc2nc(N)c3ccncc3c2c1` [Example 754, 5-amino-N-(2-propanyl)-N-((5-(trifluoromethyl)-2-pyridinyl)methyl)benzo[c][2,6]naphthyridine-9-carboxamide]: the IC50 in the experiment on HCT116 MTAP null cells is 24 nM; in the experiment with HCT116 WT cells, 370 nM.
Turning to `Nc1nc2ccc(C(=O)N(Cc3ccc(C(F)(F)F)cn3)c3cccc(F)c3)cc2c2c1COC2` [Example 883, 4-amino-N-(3-fluorophenyl)-N-((5-(trifluoromethyl)-2-pyridinyl)methyl)-1,3-dihydrofuro[3,4-c]quinoline-8-carboxamide], the IC50 with HCT116 MTAP null cells came out at 20 nM; in the experiment with HCT116 WT cells it was 514 nM.
Turning to `C[C@H](c1ccc(-c2ccc(C(F)(F)F)cc2)nn1)N(C)C(=O)c1ccc2nc(N)c3cnn(C)c3c2c1` [Example 532, 4-amino-N,1-dimethyl-N-((1R)-1-(6-(4-(trifluoromethyl)phenyl)-3-pyridazinyl)ethyl)-1H-pyrazolo[4,3-c]quinoline-8-carboxamide], the results for the IC50 in the experiment with HCT116 MTAP null cells and with HCT116 WT cells were 37 nM and 2030 nM, respectively.
As for `CC(C)N(Cc1ccc(C(F)(F)F)cn1)C(=O)c1cc2c3c(c(N)nc2cc1F)CCO3` [Example 536, 4-amino-7-fluoro-N-(2-propanyl)-N-((5-(trifluoromethyl)-2-pyridinyl)methyl)-2,3-dihydrofuro[3,2-c]quinoline-8-carboxamide], the IC50 was 50 nM in the experiment on HCT116 MTAP null cells and 325 nM with HCT116 WT cells.
For `C[C@H](c1ncccc1F)N(Cc1ccc(C(F)(F)F)nn1)C(=O)c1ccc2nc(N)c3c(c2c1)COC3` [Example 442, 4-amino-N-((1R)-1-(3-fluoro-2-pyridinyl)ethyl)-N-((6-(trifluoromethyl)-3-pyridazinyl)methyl)-1,3-dihydrofuro[3,4-c]quinoline-8-carboxamide], the IC50 amounted to 9 nM in the experiment on HCT116 MTAP null cells and 177 nM in the experiment on HCT116 WT cells.
The like results for `C[C@H](c1ccc(C(F)(F)F)nn1)N(C(=O)c1cc2c(cc1Cl)nc(N)c1cnn(C)c12)C1CC1` (single isomer, unassigned) [Example 881] were, in that order, 7 nM and 370 nM.
Take `Nc1nc2cc(F)c(C(=O)N(Cc3ccc(C(F)(F)F)cn3)C34CC(C3)C4)cc2c2c1COC2` [Example 381, 4-amino-N-(bicyclo[1.1.1]pentan-1-yl)-7-fluoro-N-((5-(trifluoromethyl)-2-pyridinyl)methyl)-1,3-dihydrofuro[3,4-c]quinoline-8-carboxamide]: the values for the IC50 in the experiment on HCT116 MTAP null cells and in the experiment with HCT116 WT cells were 8 nM and 1560 nM, respectively.
In the case of `COCC(COC)N(Cc1ccc(C(F)(F)F)cn1)C(=O)c1ccc2nc(N)c3c(c2c1)COC3` [Example 444, 4-amino-N-(1,3-dimethoxy-2-propanyl)-N-((5-(trifluoromethyl)-2-pyridinyl)methyl)-1,3-dihydrofuro[3,4-c]quinoline-8-carboxamide], the IC50 was 13 nM with HCT116 MTAP null cells and 343 nM in the experiment with HCT116 WT cells.
The like results for `CC(C)N(Cc1ccc(C2CC2)nc1)C(=O)c1cc2c3c(c(N)nc2cn1)[C@@H](C)OC3` [Example 412, (3R)-4-amino-N-((6-cyclopropyl-3-pyridinyl)methyl)-3-methyl-N-(2-propanyl)-1,3-dihydrofuro[3,4-c][1,7]naphthyridine-8-carboxamide] were, in that order, 397 nM and 25600 nM.
`CCOc1ccc(CN(C(=O)c2cc3c4c(c(N)nc3cn2)COC4)[C@H](C)COC)nn1` [Example 388, 4-amino-N-((6-ethoxy-3-pyridazinyl)methyl)-N-((2R)-1-methoxy-2-propanyl)-1,3-dihydrofuro[3,4-c][1,7]naphthyridine-8-carboxamide]: the IC50 was 54 nM in the experiment on HCT116 MTAP null cells and 1280 nM with HCT116 WT cells.
Turning to `CC(C)N(Cc1ccc(C2CC2)cn1)C(=O)c1cc2c3c(c(N)nc2cc1F)COC3` [Example 371, 4-amino-N-((5-cyclopropyl-2-pyridinyl)methyl)-7-fluoro-N-(2-propanyl)-1,3-dihydrofuro[3,4-c]quinoline-8-carboxamide], the IC50 with HCT116 MTAP null cells was determined as 10 nM; in the experiment with HCT116 WT cells it was 288 nM.
Regarding `CC(C)N(Cc1ccc(C(F)(F)F)nn1)C(=O)c1ccc2nc(N)c3c(c2c1)CO[C@@H]3C` [Example 393, (3R)-4-amino-3-methyl-N-(2-propanyl)-N-((6-(trifluoromethyl)-3-pyridazinyl)methyl)-1,3-dihydrofuro[3,4-c]quinoline-8-carboxamide], the IC50 in the experiment on HCT116 MTAP null cells stood at 113 nM; in the experiment on HCT116 WT cells, 6930 nM.

What is called IC50 is the concentration that inhibits the measured activity by half.

The values are drawn from patent US20240101570A1 (AMGEN INC., priority 2020, published 2024).
